# Test results from patent US9073902B2 (BioEnergenix, LLC, priority 2011, dated 2015).
# Target: T1, hPASK (Homo sapiens, UniProt Q96RG2)
# T1 construct: IC50 Kinase Domain; purchased Invitrogen
# Experiment: PAS Kinase FRET Assay (Biochemical Assay for hPASK Activity)
# Settings: TR-FRET (665 nm/615 nm), 2 hours at 25° C.; read-out: IC50 Kinase Domain
# From the text: Biochemical Assay for hPASK Activity
# The aim of the FRET assay is to determine the inhibition potential of test compounds on targeted kinase. This assay platform provides a homogenous screening method for measuring kinase activity by quantitating the amount of phospho-substrate in solution following a kinase reaction.
# In the presence of kinase and ATP, the Ulight-peptide is phosphorylated and captured by an anti-phospho-substrate antibody, which brings the Eu chelate donor and Ulight acceptor dyes into close proximity. Upon excitation at 340 nm, the Eu chelate transfers its energy to the Ulight dye, resulting in a fluorescent light emission at 665 nm.
# Titration of kinase at 1 mM ATP was achieved via the following protocol. After making serial three-fold dilutions of PASK (Invitrogen) in reaction buffer across the plate; 5 μl of kinase dilution and 5 μl substrate/ATP mix were added to the wells of the white Optiplate-384 (PerkinElmer). The contents of the plate were and incubated at RT for 1 h. The reaction was stopped by adding 5 μl of stop solution to each test well followed by mixing and incubation at RT for 10 minutes. 5 μl of detection mix (detection antibody diluted in detection buffer) was added; the contents of the plate were mixed and then incubated in the dark for 1 hour at RT. The signal was recorded at TR-FRET mode (665 nm/615 nm). The results were graphed to calculate the EC50.
# Titration of ATP at the EC50 concentration of kinase to determine ATP Km, app. was performed using the following method. After making serial dilutions of ATP (Invitrogen), 5 μl of ATP dilution and 5 μl substrate/kinase mix were added to the wells of the white Optiplate-384 (PerkinElmer). The contents of the plate were and incubated at RT for 1 h. The reaction was stopped by adding 5 μl of stop solution to each test well followed by mixing and incubation at RT for 10 minutes. 5 μl of detection mix (detection antibody diluted in detection buffer) was added; the contents of the plate were mixed and then incubated in the dark for 1 hour at RT. The signal was recorded at TR-FRET mode (665 nm/615 nm). The results were graphed to calculate the EC50 as the ATP Km,app.
# Compound screening was done via the following method. 10 mM stock solution of test compound in DMSO was prepared by dissolving test compound in DMSO at RT for 1 hour, and then sonicating at 100% output for 8 minutes. If compound is not soluble under this condition, it was diluted to 3 mM. Kinase reaction buffer was prepared containing 10 mM MgCl2, 50 mM HEPES, 1 mM EGTA, 0.01% TWEEN-20, 2 mM DTT. Serial dilutions of the test compounds were prepared at 4× final assay concentrations using Freedom EVO200® dispensing system as follows: 12×10^−5 M, 4×10^−5M, 1.33×10^−5M, 4.44×10^−6M, 1.48×10^−6M, 4.92×10^−7M, 1.65×10^−7M, 5.48×10^−7 M, 1.82×10^−8 M, 6.09×10^−9, 2.03×10^−9 M. Test compounds (2.5 μl at 4× the final assay concentration) was added to wells using Freedom EVO200® dispensing system. As a positive control, 2.5 μl of positive compound was added to assay wells, and 2.5 μl of DMSO to assay wells as vehicle control. Kinase solution was prepared in reaction buffer at 2× final assay concentration. Kinase solution (5 μl) was added to each well of the assay plate. The substrate and ATP solution was prepared in kinase reaction buffer at 4× final assay concentration. The kinase reaction was started by adding 2.5 μl of substrate+ATP mix solution to each well of the assay plate. The plate is mixed on a plate shaker; then covered and allowed to react for 2 hours in the dark at 25° C. without shaking. The reaction was stopped by adding 5 μl of stop solution to each test well followed by mixing and incubation at RT for 10 minutes in the dark. 5 μl of detection mix (detection antibody diluted in detection buffer) was added; the contents of the plate were mixed and then incubated in the dark for 1 hour at RT. The signal was recorded at TR-FRET mode (665 nm/615 nm).
# T1 sequence (Q96RG2 999-1251 limits assumed): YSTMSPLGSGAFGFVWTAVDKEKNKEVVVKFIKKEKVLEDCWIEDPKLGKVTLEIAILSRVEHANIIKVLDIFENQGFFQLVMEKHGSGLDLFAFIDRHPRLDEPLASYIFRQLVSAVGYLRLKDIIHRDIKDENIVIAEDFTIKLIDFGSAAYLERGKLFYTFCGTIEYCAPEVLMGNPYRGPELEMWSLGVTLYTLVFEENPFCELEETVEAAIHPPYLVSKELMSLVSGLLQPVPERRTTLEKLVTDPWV
row,IC50,Compound
1,≤ 10 µM,O=C(O)c1ccc2nc(-c3ccc(F)cc3)c(N3CCCc4cc(Br)ccc43)nc2c1 [Example 13]
2,≤ 10 µM,"COc1ccc2c(c1)N(c1nc3cc(C(=O)O)ccc3nc1-c1ccc(F)cc1)CCC2 [Example 22, 2-(4-Fluorophenyl)-3-(7-methoxy-1,2,3,4-tetrahydroquinolin-1-yl)quinoxaline-6-carboxylic acid]"
3,≤ 10 µM,"NC(=O)c1ccc2c(c1)CCCN2c1nc2cc(C(=O)O)ccc2nc1-c1ccc(F)cc1 [Example 14, 3-(6-Carbamoyl-1,2,3,4-tetrahydroquinolin-1-yl)-2-(4-fluorophenyl)quinoxaline-6-carboxylic acid]"
4,≤ 10 µM,O=C(O)c1ccc2nc(-c3ccc(F)cc3)c(N3CCCc4c(F)cccc43)nc2c1 [Example 19]
5,≤ 10 µM,"O=C(O)c1ccc2nc(-c3cc4cc(Cl)ccc4o3)c(N3CCCc4cc(F)ccc43)nc2c1 [Example 8, 2-(5-Chloro-1-benzofuran-2-yl)-3-(6-fluoro-1,2,3,4-tetrahydroquinolin-1-yl)quinoxaline-6-carboxylic acid]"
6,≤ 10 µM,"CN(C)S(=O)(=O)c1ccc2c(c1)CCCN2c1nc2cc(C(=O)O)ccc2nc1-c1ccc(F)cc1 [Example 16, 3-[6-(Dimethylsulfamoyl)-1,2,3,4-tetrahydroquinolin-1-yl]-2-(4-fluorophenyl)quinoxaline-6-carboxylic acid]"
7,≤ 10 µM,"CN(C)c1ccc2c(c1)CCCN2c1nc2cc(C(=O)O)ccc2nc1-c1ccc(F)cc1 [Example 17, 3-[6-(Dimethylamino)-1,2,3,4-tetrahydroquinolin-1-yl]-2-(4-fluorophenyl)quinoxaline-6-carboxylic acid]"
8,≤ 10 µM,"O=C(O)c1ccc2nc(-c3ccc(F)cc3)c(N3CCCc4cc(F)ccc43)nc2c1 [Example 6, 3-(6-Fluoro-1,2,3,4-tetrahydroquinolin-1-yl)-2-(4-fluorophenyl)quinoxaline-6-carboxylic acid]"
9,≤ 10 µM,"O=C(O)c1ccc2nc(-c3ccc(F)cc3)c(N3CCCc4cc5c(cc43)OCO5)nc2c1 [Example 24, 3-[2H,5H,6H,7H,8H-[1,3]Dioxolo[4,5-g]quinolin-5-yl]-2-(4-fluorophenyl)quinoxaline-6-carboxylic acid]"
10,≤ 10 µM,"O=C(O)c1ccc2nc(-c3ccc4[nH]ncc4c3)c(N3CCCc4cc(F)ccc43)nc2c1 [Example 21, 3-(6-Fluoro-1,2,3,4-tetrahydroquinolin-1-yl)-2-(1H-indazol-5-yl)quinoxaline-6-carboxylic acid]"
11,≤ 10 µM,"O=C(O)c1ccc2nc(-c3cc4ccccc4o3)c(N3CCCc4ccccc43)nc2c1 [Example 2, 2-(Benzofuran-2-yl)-3-(1,2,3,4-tetrahydroquinolin-1(2H)-yl)quinoxaline-6-carboxylic acid]"
12,> 10 µM,"O=C(O)c1ccc2[nH]c(=O)c(N3CCCc4ccccc43)nc2c1 [Example 10, 2-Oxo-3-(1,2,3,4-tetrahydroquinolin-1-yl)-1,2-dihydroquinoxaline-6-carboxylic acid]"
13,≤ 10 µM,"Cc1cc2cc(-c3nc4ccc(C(=O)O)cc4nc3N3CCCc4cc(F)ccc43)ccc2[nH]1 [Example 20, 3-(6-Fluoro-1,2,3,4-tetrahydroquinolin-1-yl)-2-(2-methyl-1H-indol-5-yl)quinoxaline-6-carboxylic acid]"
14,≤ 10 µM,"O=C(O)c1ccc2nc(-c3ccc(F)cc3)c(N3CCCc4ccc(F)cc43)nc2c1 [Example 23, 3-(7-Fluoro-1,2,3,4-tetrahydroquinolin-1-yl)-2-(4-fluorophenyl)quinoxaline-6-carboxylic acid]"
15,≤ 10 µM,"O=C(O)c1ccc2nc(-c3ccc(F)cc3)c(N3CCCc4ccccc43)nc2c1 [Example 1, 3-(1,2,3,4-Tetrahydroquinolin-1(2H)-yl)-2-(4-fluorophenyl)quinoxaline-6-carboxylic acid]"
16,≤ 10 µM,"COc1ccc2c(c1)CCCN2c1nc2cc(C(=O)O)ccc2nc1-c1ccc(F)cc1 [Example 5, 2-(4-Fluorophenyl)-3-(6-methoxy-1,2,3,4-tetrahydroquinolin-1-yl)quinoxaline-6-carboxylic acid]"
17,≤ 10 µM,"O=C(O)c1ccc2nc(-c3cc4cc(F)ccc4o3)c(N3CCCc4ccccc43)nc2c1 [Example 3, 3-(1,2,3,4-Tetrahydroquinolin-1(2H)-yl)-2-(5-fluorobenzofuran-2-yl)quinoxaline-6-carboxylic acid]"
18,≤ 10 µM,"COc1ccc2c(c1)CCCN2c1nc2cc(C(=O)O)ccc2nc1-c1cc2cc(Cl)ccc2o1 [Example 9, 2-(5-Chloro-1-benzofuran-2-yl)-3-(6-methoxy-1,2,3,4-tetrahydroquinolin-1-yl)quinoxaline-6-carboxylic acid]"
19,≤ 10 µM,"COc1ccc2c(c1)CCCN2c1nc2cc(C(=O)O)ccc2nc1-c1cc2cc(F)ccc2o1 [Example 7, 2-(5-Fluoro-1-benzofuran-2-yl)-3-(6-methoxy-1,2,3,4-tetrahydroquinolin-1-yl)quinoxaline-6-carboxylic acid]"
20,≤ 10 µM,"O=C(O)c1ccc2nc(-c3ccc4c(c3)OCCO4)c(N3CCCc4ccccc43)nc2c1 [Example 4, 2-(2,3-Dihydro-1,4-benzodioxin-6-yl)-3-(1,2,3,4-tetrahydroquinolin-1-yl)quinoxaline-6-carboxylic acid]"
21,≤ 10 µM,"O=C(O)c1ccc2nc(-c3ccc(F)cc3)c(N3CCCc4cc(C(=O)N5CCOCC5)ccc43)nc2c1 [Example 15, 2-(4-Fluorophenyl)-3-[6-[(morpholin-4-yl)carbonyl]-1,2,3,4-tetrahydroquinolin-1-yl]quinoxaline-6-carboxylic acid]"
22,≤ 10 µM,"O=C(O)c1ccc2nc(-c3ccc(F)cc3)c(N3CCCc4cc(Cl)ccc43)nc2c1 [Example 18, 3-(6-Chloro-1,2,3,4-tetrahydroquinolin-1-yl)-2-(4-fluorophenyl)quinoxaline-6-carboxylic acid]"
23,≤ 10 µM,"N#Cc1ccc2c(c1)CCCN2c1nc2cc(C(=O)O)ccc2nc1-c1ccc(F)cc1 [Example 12, 3-(6-Cyano-1,2,3,4-tetrahydroquinolin-1-yl)-2-(4-fluorophenyl)quinoxaline-6-carboxylic acid]"
